Experimental findings from patent publication US9364482B2, “Substituted benzofuran compounds and methods of use thereof for the treatment of viral diseases” (priority 2013, dated 2016) are described below.

The IC50 is the midpoint of a concentration-inhibition curve.

Read-outs that look alike come from different tables or passages of the source.

The subject of one test is HCV replicon genotype 1a. As to the kind of experiment: microbe, parasite or virus in culture. In kind it is cell-based, hepatitis C virus (HCV).
Another test concerns HCV replicon genotype 1b. In words: microbe, parasite or virus in culture. Format: cell-based, hepatitis C virus (HCV).
Where [1] appears, read: Hepatitis C virus, 96 h, read-out: 1a IC50 (nM).
Setting [2] is: Hepatitis C virus, 96 h, read-out: 1b IC50 (nM).

For `CNC(=O)c1c(-c2ccc(F)cc2)oc2cc(N(C)S(C)(=O)=O)c(-c3ccc4c(n3)C(=O)N([C@H](C)c3ccc(F)cc3)CO4)cc12` [Compound 30, (R)-2-(4-fluorophenyl)-5-(3-(1-(4-fluorophenyl)ethyl)-4-oxo-3,4-dihydro-2H-pyrido[2,3-e][1,3]oxazin-6-yl)-N-methyl-6-(N-methylmethylsulfonamido)benzofuran-3-carboxamide], the half-maximal inhibitory concentration (IC50) in the test on HCV replicon genotype 1a (read-out: 1a IC50) was 0.981 nM; in the test with HCV replicon genotype 1b (read-out: 1b IC50), 2.23 nM.
Take `CNC(=O)c1c(-c2ccc(F)cc2)oc2cc(N(C)S(C)(=O)=O)c(-c3ccc4nc(C)n([C@H](C)c5ccc(F)cc5)c(=O)c4c3)cc12` [Compound 57, (R)-2-(4-fluorophenyl)-5-(3-(1-(4-fluorophenyl)ethyl)-2-methyl-4-oxo-3,4-dihydroquinazolin-6-yl)-N-methyl-6-(N-methylmethylsulfonamido)benzofuran-3-carboxamide]: the figures for the 50% inhibitory concentration (IC50) in the test on HCV replicon genotype 1a (setting [1]) and in the test on HCV replicon genotype 1b (setting [2]) were 9.65 nM and 9.82 nM, respectively.
Consider `CNC(=O)c1c(-c2ccc(F)cc2)oc2cc(N(C)S(C)(=O)=O)c(-c3ccc4nc(C)n(Cc5ccc(F)cc5F)c(=O)c4n3)cc12` [Compound 64, 5-(3-(2,4-difluorobenzyl)-2-methyl-4-oxo-3,4-dihydropyrido[3,2-d]pyrimidin-6-yl)-2-(4-fluorophenyl)-N-methyl-6-(N-methylmethylsulfonamido)benzofuran-3-carboxamide], for which the figures for the IC50 in the test with HCV replicon genotype 1a (setting [1]) and in the test on HCV replicon genotype 1b (setting [2]) were 4.12 nM and 3.63 nM, respectively.
Taken in the same sequence, the figures for `CNC(=O)c1c(-c2ccc(F)cc2)oc2cc(N(C)S(C)(=O)=O)c(-c3ccc4nnn([C@@H](COC)c5ccc(F)cc5)c(=O)c4c3)cc12` [Compound 41, 2-(4-fluorophenyl)-5-{3-[(1R)-1-(4-fluorophenyl)-2-methoxyethyl]-4-oxo-3,4-dihydro-1,2,3-benzotriazin-6-yl}-N-methyl-6-[methyl(methylsulfonyl)amino]-1-benzofuran-3-carboxamide] were 18.1 nM and 16.2 nM.
Taken in the same sequence, the figures for `CNC(=O)c1c(-c2ccc(F)cc2)oc2cc(N(C)S(C)(=O)=O)c(-c3ccc4nnn(Cc5ccc(F)cn5)c(=O)c4c3)cc12` [Compound 48, 2-(4-fluorophenyl)-5-{3-[(5-fluoropyridin-2-yl)methyl]-4-oxo-3,4-dihydro-1,2,3-benzotriazin-6-yl}-N-methyl-6-[methyl(methylsulfonyl)amino]-1-benzofuran-3-carboxamide] were 6.93 nM and 5.97 nM.
For the molecule `CNC(=O)c1c(-c2ccc(F)cc2)oc2cc(N(C)S(C)(=O)=O)c(-c3ccc4nc(C)n([C@H](COC)c5ccc(F)cc5)c(=O)c4n3)cc12` [Compound 67, (S)-2-(4-fluorophenyl)-5-(3-(1-(4-fluorophenyl)-2-methoxyethyl)-2-methyl-4-oxo-3,4-dihydropyrido[3,2-d]pyrimidin-6-yl)-N-methyl-6-(N-methylmethylsulfonamido)benzofuran-3-carboxamide], the IC50 in the test on HCV replicon genotype 1a (setting [1]) worked out at 4.97 nM; in the test with HCV replicon genotype 1b (setting [2]), 3.77 nM.
In the same order, the values of `CNC(=O)c1c(-c2ccc(F)cc2)oc2cc(N(C)S(C)(=O)=O)c(-c3ccc4nnn([C@@H](C)c5ccc(F)cc5)c(=O)c4c3)cc12` [Compound 45, 2-(4-fluorophenyl)-5-{3-[(1S)-1-(4-fluorophenyl)ethyl]-4-oxo-3,4-dihydro-1,2,3-benzotriazin-6-yl}-N-methyl-6-[methyl(methylsulfonyl)amino]-1-benzofuran-3-carboxamide] are 35 nM and 17.5 nM.
Regarding `CNC(=O)c1c(-c2ccc(F)cc2)oc2cc(N(C)S(C)(=O)=O)c(-c3ccc4c(n3)C(=O)N(Cc3ccc(F)cc3)CC4)cc12` [Compound 36, 5-(7-(4-fluorobenzyl)-8-oxo-5,6,7,8-tetrahydro-1,7-naphthyridin-2-yl)-2-(4-fluorophenyl)-N-methyl-6-(N-methylmethylsulfonamido)benzofuran-3-carboxamide], the IC50 is 1.08 nM with HCV replicon genotype 1a (setting [1]) and 0.527 nM in the test with HCV replicon genotype 1b (setting [2]).
